# Experimental data as given in patent publication US8802674B2, “Aminopyrimidine derivatives as LRRK2 modulators” (Genentech, Inc., priority 2011, dated 2014).
# Biological target: LRRK2 (Homo sapiens (Human), UniProt Q5S007, G2019S)
# Test: In Vitro LRRK2 LabChip Assay
# Assay type: biochemical
# Details: Table 4
# Summary of the method: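 Phosphorylated and unphosphorylated peptides were separated by capillary electrophoresis and quantified by fluorescence. Ki came from a tight-binding equation, given in μM.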
# Chain of LRRK2 (Q5S007 970-2527 G2019S limits assumed): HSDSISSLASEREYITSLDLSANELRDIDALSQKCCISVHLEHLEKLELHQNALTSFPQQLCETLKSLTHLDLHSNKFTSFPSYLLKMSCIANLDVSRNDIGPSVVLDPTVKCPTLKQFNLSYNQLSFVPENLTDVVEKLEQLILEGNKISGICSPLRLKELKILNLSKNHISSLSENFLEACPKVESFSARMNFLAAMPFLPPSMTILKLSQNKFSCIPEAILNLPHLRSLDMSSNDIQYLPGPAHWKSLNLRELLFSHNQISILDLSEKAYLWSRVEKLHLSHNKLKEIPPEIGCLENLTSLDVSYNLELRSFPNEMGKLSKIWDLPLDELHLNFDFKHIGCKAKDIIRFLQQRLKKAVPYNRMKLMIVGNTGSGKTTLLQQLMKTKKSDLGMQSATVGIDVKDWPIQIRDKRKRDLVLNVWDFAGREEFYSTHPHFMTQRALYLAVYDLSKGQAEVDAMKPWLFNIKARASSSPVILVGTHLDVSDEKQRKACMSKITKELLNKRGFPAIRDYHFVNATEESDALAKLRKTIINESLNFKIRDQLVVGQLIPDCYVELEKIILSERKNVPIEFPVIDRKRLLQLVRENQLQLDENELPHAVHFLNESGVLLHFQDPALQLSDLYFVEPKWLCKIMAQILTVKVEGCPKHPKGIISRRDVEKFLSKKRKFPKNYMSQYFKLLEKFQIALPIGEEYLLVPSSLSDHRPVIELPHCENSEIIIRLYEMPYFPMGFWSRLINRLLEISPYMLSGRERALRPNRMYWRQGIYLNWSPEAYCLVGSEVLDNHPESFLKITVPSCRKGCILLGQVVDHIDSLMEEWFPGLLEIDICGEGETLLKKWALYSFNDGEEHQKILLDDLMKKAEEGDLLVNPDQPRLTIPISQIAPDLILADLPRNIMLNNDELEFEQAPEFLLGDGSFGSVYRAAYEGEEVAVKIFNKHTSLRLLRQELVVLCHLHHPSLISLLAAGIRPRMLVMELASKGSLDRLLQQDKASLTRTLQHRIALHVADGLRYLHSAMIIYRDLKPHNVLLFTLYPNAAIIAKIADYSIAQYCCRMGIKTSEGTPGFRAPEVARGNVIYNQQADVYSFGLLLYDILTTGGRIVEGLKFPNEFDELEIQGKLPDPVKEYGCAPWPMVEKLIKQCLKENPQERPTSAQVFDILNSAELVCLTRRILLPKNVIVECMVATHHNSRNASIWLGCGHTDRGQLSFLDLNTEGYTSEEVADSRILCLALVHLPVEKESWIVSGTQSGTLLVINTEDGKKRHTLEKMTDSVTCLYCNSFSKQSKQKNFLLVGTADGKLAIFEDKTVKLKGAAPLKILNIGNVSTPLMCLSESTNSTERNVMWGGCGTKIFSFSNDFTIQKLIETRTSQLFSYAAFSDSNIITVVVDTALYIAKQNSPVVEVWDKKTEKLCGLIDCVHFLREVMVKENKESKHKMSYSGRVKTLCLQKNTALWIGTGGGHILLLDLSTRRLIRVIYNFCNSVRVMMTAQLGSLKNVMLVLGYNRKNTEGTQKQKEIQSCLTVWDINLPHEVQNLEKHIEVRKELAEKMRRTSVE
row,Ki [nM],SMILES
1,68.2,"CNc1nc(Nc2ccc(C(=O)N3CCOCC3)cc2OC)ncc1C(C)=O [Example 183, l-{2-[2-Methoxy-4-(morpholine-4-carbonyl)-phenylamino]-4-methylamino-pyrimidin-5-yl}-ethanone]"
2,6.9,"COCCNc1nc(Nc2cc(F)c(C(=O)N3CCOCC3)cc2OC)ncc1Br [Example 185, {4-[5-Bromo-4-(2-methoxy-ethylamino)-pyrimidin-2-ylamino]-2-fluoro-5-methoxy-phenyl}-morpholin-4-yl-methanone]"
3,13.5,"COCCNc1nc(Nc2ccc(C(=O)N3CCOCC3)cc2OC(C)C)ncc1Br [Example 186, {4-[5-Bromo-4-(2-methoxy-ethylamino)-pyrimidin-2-ylamino]-3-isopropoxy-phenyl}-morpholin-4-yl-methanone]"
4,6.3,"CNc1nc(Nc2ccc(C(=O)N3CC4(COC4)C3)cc2OC2CCCC2)ncc1Cl [Example 188, [4-(5-Chloro-4-methylamino-pyrimidin-2-ylamino)-3-cyclopentyloxy-phenyl]-(2-oxa-6-aza-spiro[3.3]hept-6-yl)-methanone]"
5,6.3,"CNc1nc(Nc2ccc(C(=O)N3CC4(COC4)C3)cc2OC)ncc1Cl [Example 190, [4-(5-Chloro-4-methylamino-pyrimidin-2-ylamino)-3-methoxy-phenyl]-(2-oxa-6-aza-spiro[3.3]hept-6-yl)-methanone]"
6,20.8,"CNc1nc(Nc2ccc(C(=O)N3CC(F)(F)OC(F)(F)C3)cc2OC)ncc1C#N [Example 191, 2-(2-methoxy-4-(2,2,6,6-tetrafluoromorpholine-4-carbonyl)phenylamino)-4-(methylamino) pyrimidine-5-carbonitrile]"
7,23.9,"CNc1nc(Nc2ccc(C(=O)N3CCOCC3)cc2C2CC2)ncc1Cl [Example 193, [4-(5-Chloro-4-methylamino-pyrimidin-2-ylamino)-3-cyclopropyl-phenyl]-morpholin-4-yl-methanone]"
8,6.5,"CNc1nc(Nc2ccc(C(=O)NC3CC(F)(F)C3)cc2OC)ncc1C#N [Example 194, 4-(5-Cyano-4-methylamino-pyrimidin-2-ylamino)-N-(3,3-difluoro-cyclobutyl)-3-methoxy-benzamide]"
9,4.2,"CNc1nc(Nc2ccc(C(=O)NCC3CC3)cc2OC)ncc1C#N [Example 195, 4-(5-Cyano-4-methylamino-pyrimidin-2-ylamino)-N-cyclopropylmethyl-3-methoxy-benzamide]"
10,6,"CNc1nc(Nc2ccc(C(=O)N3CC[C@H](F)C3)cc2OC)ncc1C#N [Example 196, 2-[4-((S)-3-Fluoro-pyrrolidine-1-carbonyl)-2-methoxy-phenylamino]-4-methylamino-pyrimidine-5-carbonitrile]"
11,6.6,"CNC(=O)c1ccc(Nc2ncc(C#N)c(NC)n2)c(OC)c1 [Example 197, 4-(5-Cyano-4-methylamino-pyrimidin-2-ylamino)-3-methoxy-N-methyl-benzamide]"
12,6.8,"CCN(CC)C(=O)c1ccc(Nc2ncc(C#N)c(NC)n2)c(OC)c1 [Example 199, 4-(5-Cyano-4-methylamino-pyrimidin-2-ylamino)-N,N-diethyl-3-methoxy-benzamide]"
13,4.4,"CNc1nc(Nc2ccc(C(=O)NC(C)C)cc2OC)ncc1C#N [Example 200, 4-(5-Cyano-4-methylamino-pyrimidin-2-ylamino)-N-isopropyl-3-methoxy-benzamide]"
14,9.6,"CCNC(=O)c1ccc(Nc2ncc(C#N)c(NC)n2)c(OC)c1 [Example 203, 4-(5-Cyano-4-methylamino-pyrimidin-2-ylamino)-N-ethyl-3-methoxy-benzamide]"
15,3.3,"CNc1nc(Nc2ccc(C(=O)N3CCCCC3)cc2OC)ncc1C#N [Example 204, 2-[2-Methoxy-4-(piperidine-1-carbonyl)-phenylamino]-4-methylamino-pyrimidine-5-carbonitrile]"
16,12.1,"CNc1nc(Nc2ccc(C(=O)NCC(F)F)cc2OC)ncc1C#N [Example 205, 4-(5-Cyano-4-methylamino-pyrimidin-2-ylamino)-N-(2,2-difluoro-ethyl)-3-methoxy-benzamide]"
17,4.6,"CNc1nc(Nc2ccc(C(=O)NC(C)(C)C)cc2OC)ncc1C#N [Example 206, N-tert-Butyl-4-(5-cyano-4-methylamino-pyrimidin-2-ylamino)-3-methoxy-benzamide]"
18,5.4,"CCN(C(=O)c1ccc(Nc2ncc(C#N)c(NC)n2)c(OC)c1)C(C)C [Example 207, 4-(5-Cyano-4-methylamino-pyrimidin-2-ylamino)-N-ethyl-N-isopropyl-3-methoxy-benzamide]"
19,8.1,"CNc1nc(Nc2ccc(C(=O)N3CCC(F)(F)C3)cc2OC)ncc1C#N [Example 208, 2-[4-(3,3-Difluoropyrrolidine-1-carbonyl)-2-methoxy-phenylamino]-4-methylamino-pyrimidine-5-carbonitrile]"

row,Ki [nM],SMILES
1,26.4,"CNc1nc(Nc2ccc(C(=O)N3CCC3)cc2OC)ncc1C#N [Example 212, 2-[4-(Azetidine-1-carbonyl)-2-methoxy-phenylamino]-4-methylamino-pyrimidine-5-carbonitrile]"
2,6.8,"CNc1nc(Nc2ccc(C(=O)N(C)C(C)C)cc2OC)ncc1C#N [Example 213, 4-(5-Cyano-4-methylamino-pyrimidin-2-ylamino)-N-isopropyl-3-methoxy-N-methyl-benzamide]"
3,18.4,"COc1cc(C(=O)N2CCOCC2)ccc1Nc1ncc(Cl)c(NC2CCOC2)n1 (stereo not drawn) [Example 214, {4-[5-Chloro-4-(tetrahydro-furan-3-ylamino)-pyrimidin-2-ylamino]-3-methoxy-phenyl}-morpholin-4-yl-methanone]"
4,9.4,"CNc1nc(Nc2ccc(C(=O)N3CCOCC3)cc2OC(C)C)ncc1C(F)(F)F [Example 215, [3-Isopropoxy-4-(4-methylamino-5-trifluoromethyl-pyrimidin-2-ylamino)-phenyl]-morpholin-4-yl-methanone]"
5,4.2,"CCOc1cc(C(=O)N2CCOCC2)ccc1Nc1ncc(C(F)(F)F)c(NC)n1 [Example 216, [3-Ethoxy-4-(4-methylamino-5-trifluoromethyl-pyrimidin-2-ylamino)-phenyl]-morpholin-4-yl-methanone]"
6,2,"CNc1nc(Nc2ccc(C(=O)N3CCOCC3)cc2OC2CC2)ncc1Cl [Example 217, [4-(5-Chloro-4-methylamino-pyrimidin-2-ylamino)-3-cyclopropoxy-phenyl]-morpholin-4-yl-methanone]"
7,2.5,"COc1nc(Nc2ccc(C(=O)N3CCOCC3)cc2OC2CC2)ncc1Br [Example 218, [4-(5-Bromo-4-methoxy-pyrimidin-2-ylamino)-3-cyclopropoxy-phenyl]-morpholin-4-yl-methanone]"
8,26.4,"COc1cc(C(=O)N2CCOCC2)ccc1Nc1ncc(Cl)c(NCCS(C)(=O)=O)n1 [Example 219, {4-[5-Chloro-4-(2-methanesulfonyl-ethylamino)-pyrimidin-2-ylamino]-3-methoxy-phenyl}-morpholin-4-yl-methanone]"
9,3.4,"CNc1nc(Nc2cc(OC)c(CC(=O)N3CCOCC3)cc2OC)ncc1Br [Example 220, 2-[4-(5-Bromo-4-methylamino-pyrimidin-2-ylamino)-2,5-dimethoxy-phenyl] 1-morpholin-4-yl-ethanone]"
10,8.7,"CNc1nc(Nc2cc(OC)c(CC(=O)N3CCOCC3)cc2OC)ncc1Cl [Example 221, 2-[4-(5-Chloro-4-methylamino-pyrimidin-2-ylamino)-2,5-dimethoxy-phenyl] 1-morpholin-4-yl-ethanone]"
11,9,"CNc1nc(Nc2ccc(CC(=O)N3CCOCC3)cc2OC)ncc1Cl [Example 222, 2-[4-(5-Chloro-4-methylamino-pyrimidin-2-ylamino)-3-methoxy-phenyl]-1-morpholin-4-yl-ethanone]"
12,5.2,"CNc1nc(Nc2ccc(CC(=O)N3CCOCC3)cc2OC)ncc1C(F)(F)F [Example 223, 2-[3-Methoxy-4-(4-methylamino-5-trifluoromethyl-pyrimidin-2-ylamino)-phenyl]-1-morpholin-4-yl-ethanone]"
13,5.6,"COc1cc(CC(=O)N2CCOCC2)ccc1Nc1ncc(Br)c(OC)n1 [Example 226, 2-[4-(5-Bromo-4-methoxy-pyrimidin-2-ylamino)-3-methoxy-phenyl]-1-morpholin-4-yl-ethanone]"
14,3.7,"CNc1nc(Nc2cc(OC)c(CC(=O)N3CCOCC3)cc2OC)ncc1C(F)(F)F [Example 227, 2-[2,5-Dimethoxy-4-(4-methylamino-5-trifluoromethyl-pyrimidin-2-ylamino)-phenyl]-1-morpholin-4-yl-ethanone]"
15,3.8,"CNc1nc(Nc2cc(OC)c(C(=O)NCCCN)cc2Cl)ncc1Cl [Example 228, N-(3-Amino-propyl)-5-chloro-4-(5-chloro-4-methylamino-pyrimidin-2-ylamino)-2-methoxy-benzamide]"
16,4.1,"COCCNc1nc(Nc2ccc(C(=O)N3CCOCC3)cc2OC)ncc1Br [Example 229, {4-[5-Bromo-4-(2-methoxy-ethylamino)-pyrimidin-2-ylamino]-3-methoxy-phenyl}-morpholin-4-yl-methanone]"
17,9.6,"COc1cc(C(=O)N2CCOCC2)ccc1Nc1ncc(Cl)c(NCC(C)OC)n1 (stereo not drawn) [Example 230, {4-[5-Chloro-4-(2-methoxy-propylamino)-pyrimidin-2-ylamino]-3-methoxy-phenyl}-morpholin-4-yl-methanone]"
18,7.4,"CNc1nc(Nc2ccc(C(=O)N3CCOCC3)cc2C)ncc1Cl [Example 232, (4-(5-chloro-4-(methylamino)pyrimidin-2-ylamino)-3-methylphenyl) (morpholino) methanone]"
19,6.1,"CNc1nc(Nc2ccc(C(=O)N3CCC(O)CC3)cc2C)ncc1Cl [Example 233, (4-(5-chloro-4-(methylamino)pyrimidin-2-ylamino)-3-methylphenyl)(4-hydroxypiperidin-1-yl)methanone]"

row,SMILES,Ki [nM]
1,"COCCOc1nc(Nc2ccc(C(=O)N3CCOCC3)cc2OC2CCC2)ncc1Cl [Example 187, {4-[5-Chloro-4-(2-methoxy-ethoxy)-pyrimidin-2-ylamino]-3-cyclobutoxy-phenyl}-morpholin-4-yl-methanone]",14.3
